Laboratory results: paper PMC11285368, “Chasing Red Herrings: Palladium Metal Salt Impurities Feigning KRAS Activity in Biochemical Assays” (Journal of Medicinal Chemistry, 2024)
Like-named read-outs stand apart in the source and are kept apart here.

Experiments:
Assay type in all cases: biochemical
FKBP51 = biological target: T1, FKBP51 (Homo sapiens, UniProt Q13451); test: FKBP51 AlphaScreen, Target #1
T1 sequence (Q13451 1-457): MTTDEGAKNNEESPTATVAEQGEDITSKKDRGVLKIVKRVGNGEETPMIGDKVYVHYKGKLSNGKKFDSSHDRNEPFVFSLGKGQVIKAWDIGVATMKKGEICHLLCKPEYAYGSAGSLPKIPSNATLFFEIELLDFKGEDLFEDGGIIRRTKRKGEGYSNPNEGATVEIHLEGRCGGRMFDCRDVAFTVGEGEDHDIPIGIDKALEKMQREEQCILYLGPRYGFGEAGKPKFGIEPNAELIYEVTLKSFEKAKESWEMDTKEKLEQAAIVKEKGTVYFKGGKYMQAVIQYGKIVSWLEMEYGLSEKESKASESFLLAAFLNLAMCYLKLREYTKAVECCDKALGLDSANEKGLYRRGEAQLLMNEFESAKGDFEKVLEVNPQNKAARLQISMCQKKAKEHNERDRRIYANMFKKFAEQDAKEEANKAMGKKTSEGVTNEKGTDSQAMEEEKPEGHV
Protocol: (§1) Metal salt solutions for the metal ion interference set (MIIS) were prepared as 10 mM stock solutions in DMSO (see Table 3). All metal salts used have been purchased at highest industrial grade.

MDM2 = MDM2 (Homo sapiens, UniProt Q00987); test: MDM2 AlphaScreen, Target #1
Protocol: as §1

SOS1 [1] = biological target: T2, SOS1 (Homo sapiens, UniProt Q07889); test: SOS1 AlphaScreen, Target #1
T2 sequence (Q07889 1-1333): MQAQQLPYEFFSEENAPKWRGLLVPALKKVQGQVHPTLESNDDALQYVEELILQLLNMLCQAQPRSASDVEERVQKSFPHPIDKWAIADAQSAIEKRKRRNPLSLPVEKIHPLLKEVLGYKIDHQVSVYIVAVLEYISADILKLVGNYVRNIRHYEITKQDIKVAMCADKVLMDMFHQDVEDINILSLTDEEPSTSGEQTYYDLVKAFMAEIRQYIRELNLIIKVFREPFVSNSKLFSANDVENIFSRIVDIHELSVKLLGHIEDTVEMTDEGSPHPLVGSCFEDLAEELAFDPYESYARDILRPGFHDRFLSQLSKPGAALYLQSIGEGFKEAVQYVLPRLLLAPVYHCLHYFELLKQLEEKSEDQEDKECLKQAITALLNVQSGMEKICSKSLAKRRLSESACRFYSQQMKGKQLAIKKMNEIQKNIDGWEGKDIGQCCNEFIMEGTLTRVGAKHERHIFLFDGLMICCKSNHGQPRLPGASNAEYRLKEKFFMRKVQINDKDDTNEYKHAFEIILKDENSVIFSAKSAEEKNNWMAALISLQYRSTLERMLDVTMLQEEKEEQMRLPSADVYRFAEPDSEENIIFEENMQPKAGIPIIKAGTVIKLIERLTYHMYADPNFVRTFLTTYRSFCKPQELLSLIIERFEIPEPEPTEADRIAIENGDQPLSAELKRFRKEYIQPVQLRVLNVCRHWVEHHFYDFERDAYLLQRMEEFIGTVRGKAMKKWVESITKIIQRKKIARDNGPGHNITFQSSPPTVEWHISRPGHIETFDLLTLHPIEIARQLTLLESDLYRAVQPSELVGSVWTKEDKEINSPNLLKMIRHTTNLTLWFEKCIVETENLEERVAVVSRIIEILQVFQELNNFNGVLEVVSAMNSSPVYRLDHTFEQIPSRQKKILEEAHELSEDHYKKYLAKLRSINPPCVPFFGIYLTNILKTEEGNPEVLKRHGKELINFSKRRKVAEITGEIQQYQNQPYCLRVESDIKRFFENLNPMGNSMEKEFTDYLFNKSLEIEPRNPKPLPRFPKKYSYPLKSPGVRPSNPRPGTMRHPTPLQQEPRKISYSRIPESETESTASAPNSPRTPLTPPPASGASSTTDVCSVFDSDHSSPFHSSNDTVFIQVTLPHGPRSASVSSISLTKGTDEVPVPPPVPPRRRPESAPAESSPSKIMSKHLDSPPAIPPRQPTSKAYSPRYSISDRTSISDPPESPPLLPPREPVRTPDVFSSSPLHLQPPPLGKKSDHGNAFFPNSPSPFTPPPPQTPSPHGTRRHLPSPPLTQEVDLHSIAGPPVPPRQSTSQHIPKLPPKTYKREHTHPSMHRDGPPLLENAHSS
Protocol: as §1

off-target [2] = test: SOS1 AlphaScreen, Target #2
Protocol: as §1

off-target (int.) = test: WRN ADP-Glo, Target #3
Protocol: as §1

off target (ext.) = test: WRN ADP-Glo, Target #4
Protocol: as §1

BCL6 = BCL6 (Homo sapiens, UniProt P41182); test: BCL6 Fluorescence Polarization; conditions: read-out: Target #1 IC50
Protocol: as §1

SOS1 [3] = biological target: T2, SOS1; test: SOS1 TR-FRET; conditions: read-out: Target #1 IC50
Protocol: as §1

KRAS = KRAS (Homo sapiens, UniProt P01116); test: KRAS TR-FRET (MIIS list); conditions: read-out: Target #1 IC50
Protocol: as §1

LSD1 = LSD1 (Homo sapiens, UniProt O60341); test: LSD1 DELFIA; conditions: read-out: Target #1 IC50
Protocol: as §1

off-target [4] = test: UPA-UPAR AlphaScreen, Target #2
Protocol: as §1

biotinylated GST = biotinylated GST (Schistosoma japonicum, UniProt P08515); test: Control assay (AlphaScreen Shortcut)
Protocol: This assay was developed to identify compounds that interfere with the assay format using AlphaLISA Glutathione Acceptor and AlphaScreen Streptavidin Donor beads. The assay was performed as described above using biotinylated GST as bridging reagent instead of KRAS^G12D and CRAF mix.

KRAS^G12D(GTP)::CRAF = biological target: T3, KRAS^G12D(GTP)::CRAF (Homo sapiens, UniProt P01116, G12D); test: KRAS^G12D(GTP)::CRAF TR-FRET; conditions: Fluorescence; GST-CRAF^(51–131) and KRAS^G12D(1–169)-biotin
T3 construct: KRAS^G12D 1–169, N-terminal 6His-tag, C-terminal avi-tag (Xtal BioStructures, Inc.); 6His (N); purchased Xtal BioStructures, Inc. (KRAS); Viva Biotech Ltd. (CRAF)
Protocol: Plates were kept at room temperature in a darkened incubator.
IC50 values were calculated and analyzed with Boehringer Ingelheim’s MEGALAB IC50 application using a 4 parametric logistic model.

Chain of MDM2 (Q00987 whole entry, species assumed): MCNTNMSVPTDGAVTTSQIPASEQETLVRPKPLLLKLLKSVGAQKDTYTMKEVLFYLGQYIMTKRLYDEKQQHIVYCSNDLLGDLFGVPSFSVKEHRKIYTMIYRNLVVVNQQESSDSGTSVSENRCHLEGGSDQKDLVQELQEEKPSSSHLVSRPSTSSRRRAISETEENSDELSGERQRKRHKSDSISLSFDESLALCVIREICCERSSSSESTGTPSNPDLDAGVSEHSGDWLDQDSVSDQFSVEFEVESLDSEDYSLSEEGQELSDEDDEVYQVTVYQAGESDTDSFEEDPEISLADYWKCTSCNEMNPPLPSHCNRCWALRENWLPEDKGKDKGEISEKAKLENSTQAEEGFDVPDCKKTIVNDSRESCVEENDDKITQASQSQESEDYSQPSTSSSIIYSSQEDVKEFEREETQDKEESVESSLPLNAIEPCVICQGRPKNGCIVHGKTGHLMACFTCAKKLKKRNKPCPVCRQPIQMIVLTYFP
Chain of KRAS (P01116 1-188 isoform P01116-2): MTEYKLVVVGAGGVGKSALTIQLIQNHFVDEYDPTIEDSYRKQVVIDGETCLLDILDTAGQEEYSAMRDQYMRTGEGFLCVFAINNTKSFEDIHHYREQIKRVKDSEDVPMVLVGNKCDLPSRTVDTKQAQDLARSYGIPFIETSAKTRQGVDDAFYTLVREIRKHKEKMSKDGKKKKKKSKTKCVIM
Chain of biotinylated GST (P08515 whole entry): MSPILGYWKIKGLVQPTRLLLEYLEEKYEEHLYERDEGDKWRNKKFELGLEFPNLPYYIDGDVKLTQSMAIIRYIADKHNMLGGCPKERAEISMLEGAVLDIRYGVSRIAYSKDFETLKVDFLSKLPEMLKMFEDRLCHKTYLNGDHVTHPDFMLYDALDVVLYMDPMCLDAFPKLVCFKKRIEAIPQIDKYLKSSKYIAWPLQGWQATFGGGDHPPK
T3 sequence (P01116 1-169 isoform P01116-2 G12D): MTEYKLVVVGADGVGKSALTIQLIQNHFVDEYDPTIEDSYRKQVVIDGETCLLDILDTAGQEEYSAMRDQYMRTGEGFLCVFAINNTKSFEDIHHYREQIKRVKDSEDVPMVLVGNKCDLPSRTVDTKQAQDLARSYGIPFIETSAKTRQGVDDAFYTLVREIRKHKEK

| SMILES | IC50 (FKBP51) [µM] | IC50 (MDM2) [µM] | IC50 (SOS1 [1]) [µM] | IC50 (off-target [2]) [µM] | IC50 (off-target (int.)) [µM] | IC50 (off target (ext.)) [µM] | IC50 (BCL6) [µM] | IC50 (SOS1 [3]) [µM] | IC50 (KRAS) [µM] | IC50 (LSD1) [µM] | IC50 (off-target [4]) [µM] | IC50 (biotinylated GST; Batch 1, read-out: Control assay IC50) [µM] | IC50 (biotinylated GST; Luminescence, biotinylated GST, read-out: IC50, Control assay) [µM] | IC50 (KRAS^G12D(GTP)::CRAF) [µM] |
| --- | --- | --- | --- | --- | --- | --- | --- | --- | --- | --- | --- | --- | --- | --- |
| CC(=O)[O-].[Ag+] [Ag (CH 3COO), Silver acetate] | > 10 | > 10 | < 1 | > 10 | > 10 | > 10 | > 10 | < 1 | < 1 | 1 to 10 | – | – | – | – |
| O=[N+]([O-])[O-].O=[N+]([O-])[O-].O=[N+]([O-])[O-].[Al+3] [Al(NO3)3, Aluminum nitrate] | < 1 | > 10 | > 10 | > 10 | 1 to 10 | > 10 | > 10 | > 10 | – | 1 to 10 | > 10 | – | – | – |
| [Cl][Au]([Cl])[Cl] [AuCl3, Gold(III) chloride] | > 10 | > 10 | < 1 | > 10 | > 10 | > 10 | > 10 | < 1 | < 1 | 1 to 10 | 1 to 10 | – | – | – |
| [Cl-].[Cl-].[Co+2] [CoCl2, Cobalt(II) chloride] | > 10 | > 10 | > 10 | > 10 | > 10 | > 10 | > 10 | > 10 | – | – | > 10 | – | – | – |
| [Cl][Cu][Cl] [CuCl2, Copper(II) chloride] | > 10 | > 10 | 1 to 10 | > 10 | > 10 | > 10 | > 10 | > 10 | – | > 10 | > 10 | – | – | – |
| [Cl][Fe][Cl] [FeCl2, Iron(II) chloride] | > 10 | > 10 | > 10 | > 10 | > 10 | > 10 | > 10 | 1 to 10 | – | > 10 | > 10 | – | – | – |
| [Cl][Fe]([Cl])[Cl] [FeCl3, Iron(III) chloride] | > 10 | > 10 | > 10 | > 10 | > 10 | > 10 | > 10 | 1 to 10 | – | > 10 | > 10 | – | – | – |
| [Cl-].[Cl-].[Mg+2] [MgCl2, Magnesium chloride] | > 10 | > 10 | > 10 | > 10 | > 10 | > 10 | > 10 | > 10 | – | > 10 | > 10 | – | – | – |
| [Cl][Mn][Cl] [MnCl2, Manganese(II) chloride] | > 10 | > 10 | > 10 | > 10 | > 10 | > 10 | > 10 | > 10 | – | > 10 | > 10 | – | – | – |
| [Cl][Ni][Cl] [NiCl2, Nickel(II) chloride] | > 10 | > 10 | > 10 | > 10 | > 10 | > 10 | > 10 | > 10 | – | 1 to 10 | > 10 | – | – | – |
| [Cl][Pd][Cl] [PdCl2, Palladium(II) chloride] | > 10 | > 10 | < 1 | > 10 | < 1 | > 10 | > 10 | 1 to 10 | – | 1 to 10 | < 1 | 5.8 ± 0.7 | 5.8 ± 0.7 | 40.5 ± 19.2 |
| [Cl][Sn][Cl] [SnCl2, Tin(II) chloride] | 1 to 10 | > 10 | > 10 | > 10 | > 10 | > 10 | > 10 | 1 to 10 | – | > 10 | > 10 | – | – | – |
| [Cl-].[Cl-].[Zn+2] [ZnCl2, Zinc(II) chloride] | > 10 | > 10 | > 10 | > 10 | > 10 | > 10 | > 10 | > 10 | – | > 10 | > 10 | – | – | – |
